Results as given in patent US6737383B1, “Herbicidal oxadiazolidines” (priority 1999, dated 2004).

Columns and labels:
[1] = tested on: cocklebur; assay: Test B pre/postemergence cocklebur; assay type: in vivo, Xanthium strumarium
In short: (§1)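 Herbicidal effect was estimated by eye on a ten-point control scale after plants spent twelve to sixteen days in a greenhouse following soil or foliar treatment. Foliar sprays targeted plants at one to four leaves; all doses were formulated in a non-phytotoxic solvent with surfactant.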

[2] = tested on: soybean; assay: Test B pre/postemergence soybean; assay type: in vivo, Glycine max
In short: as §1

[3] = tested on: velvetleaf; assay: Test B pre/postemergence velvetleaf; assay type: in vivo, Abutilon theophrasti
In short: as §1

[4] = tested on: duck salad; assay: Test B flood test duck salad; assay type: in vivo, Heteranthera limosa; settings: for Plant response rating, Ducksalad (0 to 10 scale, 0 is no effect, 10 is complete control) / Ducksalad plant response rating (0 to 10 scale, 0 is no effect, 10 is complete control): visual evaluation after twelve to sixteen days; for Ducksalad plant response rating (0 to 10 scale, 0 is no effect, 10 is complete control): under heading Pre-emergence
In short: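 Plants were grown to the 2-leaf stage before treatment with test chemical, then held in a greenhouse for twelve to sixteen days. Injury was visually rated against untreated controls on a 0–10 scale, where 0 is no effect and 10 is complete control.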

[5] = Postemergence, Rate 62 g/ha, scale 0 to 10, 0 is no effect, 10 is complete control
[6] = Postemergence, Rate 125 g/ha, scale of 0 to 10 where 0 is no effect and 10 is complete control
[7] = Preemergence, Rate 62 g/ha, scale of 0 to 10 where 0 is no effect and 10 is complete control
[8] = Preemergence, Rate 125 g/ha, scale of 0 to 10 where 0 is no effect and 10 is complete control
[9] = Preemergence, Rate 250 g/ha, scale 0 to 10 (0 no effect, 10 complete control)
[10] = Preemergence, Rate 500 g/ha, scale of 0 to 10 where 0 is no effect and 10 is complete control
[11] = Rate 500 g/ha, Postemergence, scale 0 to 10, 0 is no effect, 10 is complete control
[12] = Rate 62 g/ha, flood test species, Pre-emergence
[13] = Rate 125 g/ha, flood test species
[14] = Postemergence, Rate 250 g/ha, scale 0 to 10, 0 no effect, 10 complete control
[15] = Preemergence, Rate 62 g/ha, scale 0 to 10 (0 no effect, 10 complete control)
[16] = Preemergence, Rate 125 g/ha, scale 0 to 10 (0 no effect, 10 complete control)
[17] = Preemergence, Rate 250 g/ha, scale of 0 to 10 where 0 is no effect and 10 is complete control
[18] = Preemergence, Rate 500 g/ha, scale 0 (no effect) to 10 (complete control)
[19] = Rate 125 g/ha, Postemergence, scale 0 to 10, 0 no effect, 10 complete control
[20] = Rate 500 g/ha, Postemergence, scale 0 to 10, 0 no effect, 10 complete control
[21] = Rate 125 g/ha, Postemergence section (flood test species), scale 0 to 10, 0 no effect, 10 complete control
[22] = Rate 500 g/ha, listed under Postemergence (flood test species), scale 0 to 10, 0 no effect, 10 complete control
[23] = flood test, listed under Postemergence, Rate 250 g/ha, scale 0 to 10, 0 no effect, 10 complete control
[24] = Preemergence, Rate 500 g/ha, scale 0 to 10 (0 no effect, 10 complete control)
[25] = Rate 62 g/ha, Postemergence, scale of 0 to 10 where 0 is no effect and 10 is complete control
[26] = Rate 250 g/ha, Postemergence, scale 0 to 10, 0 is no effect, 10 is complete control
[27] = Preemergence, Rate 31 g/ha, visual rating, scale 0 to 10 (0 no effect, 10 complete control)
[28] = Preemergence, Rate 62 g/ha, scale 0 to 10, 0 is no effect, 10 is complete control
[29] = Postemergence, Rate 125 g/ha, scale 0 to 10, 0 is no effect, 10 is complete control
[30] = Postemergence, Rate 250 g/ha, scale 0 to 10, 0 is no effect, 10 is complete control

C#CC(C)n1c(=O)on(C(=O)N(c2ccc(Cl)cc2)C(C)C)c1=O (racemic) [Compound 658]
3: Plant response rating, Soybean [2, 10] | Plant response rating, Velvetleaf [3, 9]
6: Velvetleaf plant response rating [3, 11]
2: Cocklebur plant response rating ([1]; Postemergence, Rate 250 g/ha, scale of 0 to 10, 0 is no effect, 10 is complete control) | Plant response rating, Soybean [2, 5]
0: Plant response rating, Cocklebur [1, 5] | Cocklebur plant response rating [1, 6] | Cocklebur plant response rating [1, 7] | Cocklebur plant response rating [1, 8] | Plant response rating, Cocklebur [1, 9] | Plant response rating, Cocklebur [1, 10] | Soybean plant response rating [2, 7] | Soybean plant response rating [2, 8] | Plant response rating, Soybean [2, 9] | Plant response rating, Velvetleaf [3, 5] | Velvetleaf plant response rating [3, 6] | Velvetleaf plant response rating [3, 7] | Velvetleaf plant response rating [3, 8] | Plant response rating, Ducksalad (0 to 10 scale, 0 is no effect, 10 is complete control) [4, 12] | Ducksalad plant response rating (0 to 10 scale, 0 is no effect, 10 is complete control) [4, 13] | Ducksalad plant response rating ([4]; Rate 250 g/ha, Pre-emergence (flood test species), scale 0 to 10, 0 is no effect, 10 is complete control) | Ducksalad plant response rating ([4]; Rate 500 g/ha, Pre-emergence section of Table B, 0 to 10 scale (0 no effect, 10 complete control))
4: Soybean plant response rating [2, 6] | Soybean plant response rating [2, 11]
5: Cocklebur plant response rating [1, 11] | Plant response rating, Velvetleaf [3, 10]

CCN(CC)C(=O)n1oc(=O)n(Cc2cccs2)c1=O [Compound 77]
3: Velvetleaf plant response rating [3, 18]
1: Soybean plant response rating [2, 14] | Soybean plant response rating [2, 20]
0: Cocklebur plant response rating [1, 5] | Cocklebur plant response rating [1, 14] | Cocklebur plant response rating [1, 15] | Plant response rating, Cocklebur [1, 16] | Plant response rating, Cocklebur [1, 17] | Cocklebur plant response rating [1, 18] | Cocklebur plant response rating [1, 19] | Soybean plant response rating [2, 5] | Soybean plant response rating [2, 15] | Plant response rating, Soybean [2, 16] | Plant response rating, Soybean [2, 17] | Soybean plant response rating [2, 18] | Soybean plant response rating [2, 19] | Velvetleaf plant response rating [3, 5] | Velvetleaf plant response rating [3, 14] | Velvetleaf plant response rating [3, 15] | Plant response rating, Velvetleaf [3, 16] | Plant response rating, Velvetleaf [3, 17] | Velvetleaf plant response rating [3, 19] | Velvetleaf plant response rating [3, 20] | Ducksalad plant response rating [4, 5] | Ducksalad plant response rating [4, 21] | Ducksalad plant response rating [4, 22] | Ducksalad plant response rating [4, 23]
4: Cocklebur plant response rating [1, 20]

Cc1nn(C)c(Cl)c1-n1c(=O)on(C(=O)N(c2ccccc2)C(C)C)c1=O [Compound 121]
4: Plant response rating, Velvetleaf [3, 26] | Velvetleaf plant response rating [3, 20]
2: Cocklebur plant response rating [1, 6] | Cocklebur plant response rating [1, 14]
0: Cocklebur plant response rating [1, 15] | Plant response rating, Cocklebur [1, 16] | Cocklebur plant response rating [1, 24] | Cocklebur plant response rating [1, 25] | Soybean plant response rating [2, 15] | Plant response rating, Soybean [2, 16] | Plant response rating, Soybean [2, 17] | Soybean plant response rating [2, 24] | Velvetleaf plant response rating [3, 6] | Velvetleaf plant response rating [3, 15] | Velvetleaf plant response rating (0 to 10 scale) ([3]; Preemergence, Rate 125 g/ha, 0 is no effect, 10 is complete control) | Plant response rating, Velvetleaf [3, 17] | Velvetleaf plant response rating [3, 24] | Velvetleaf plant response rating [3, 25] | Ducksalad plant response rating ([4]; Postemergence (flood test species), Rate 125 g/ha, scale of 0 to 10 where 0 is no effect and 10 is complete control) | Ducksalad plant response rating ([4]; Rate 62 g/ha, Postemergence section, flood test species, scale of 0 to 10 where 0 is no effect and 10 is complete control) | Ducksalad plant response rating ([4]; Rate 250 g/ha, headed Pre-emergence (flood test species), scale 0 to 10 (0 no effect, 10 complete control)) | Plant response rating, Ducksalad ([4]; Rate 500 g/ha, headed Pre-emergence (flood test species), scale 0 to 10 (0 no effect, 10 complete control)) | Ducksalad plant response rating [4, 22] | Ducksalad plant response rating ([4]; Rate 1000 g/ha, Pre-emergence (as headed), scale 0 to 10) | Ducksalad plant response rating ([4]; Rate 2000 g/ha, Pre-emergence (as headed), scale 0 to 10) | Ducksalad plant response rating [4, 23]
6: Plant response rating, Soybean [2, 26] | Soybean plant response rating [2, 20]
5: Cocklebur plant response rating [1, 20] | Soybean plant response rating [2, 6] | Soybean plant response rating [2, 25]

CCN(C(=O)n1oc(=O)n(-c2c(C)cccc2C)c1=O)C1CCCCC1 [Compound 27]
0: Cocklebur plant response rating [1, 5] | Cocklebur plant response rating [1, 14] | Cocklebur plant response rating [1, 27] | Plant response rating, Cocklebur [1, 28] | Plant response rating, Cocklebur [1, 16] | Plant response rating, Cocklebur [1, 17] | Cocklebur plant response rating ([1]; Rate 31 g/ha, Postemergence, scale 0 to 10) | Cocklebur plant response rating [1, 19] | Soybean plant response rating [2, 27] | Plant response rating, Soybean [2, 28] | Plant response rating, Soybean [2, 16] | Plant response rating, Soybean [2, 17] | Velvetleaf plant response rating [3, 5] | Velvetleaf plant response rating [3, 14] | Velvetleaf plant response rating [3, 27] | Plant response rating, Velvetleaf [3, 28] | Plant response rating, Velvetleaf [3, 16] | Plant response rating, Velvetleaf [3, 17] | Velvetleaf plant response rating [3, 19] | Ducksalad plant response rating [4, 5] | Ducksalad plant response rating [4, 21] | Ducksalad plant response rating ([4]; Rate 500 g/ha, Postemergence section of Table B, 0 to 10 scale (0 no effect, 10 complete control)) | Ducksalad plant response rating [4, 23]
2: Soybean plant response rating [2, 14]
1: Soybean plant response rating [2, 5] | Soybean plant response rating [2, 19]

Cc1cccc(Cl)c1-n1c(=O)on(C(=O)N(c2ccc(F)cc2)C(C)C)c1=O [Compound 53]
0: Cocklebur plant response rating [1, 5] | Plant response rating, Cocklebur [1, 28] | Plant response rating, Cocklebur [1, 17] | Cocklebur plant response rating [1, 19] | Plant response rating, Soybean [2, 28] | Plant response rating, Soybean [2, 16] | Plant response rating, Soybean [2, 17] | Soybean plant response rating [2, 18] | Velvetleaf plant response rating [3, 5] | Plant response rating, Velvetleaf [3, 28] | Plant response rating, Velvetleaf [3, 16] | Plant response rating, Velvetleaf [3, 17] | Velvetleaf plant response rating [3, 18] | Velvetleaf plant response rating [3, 19] | Ducksalad plant response rating [4, 5] | Ducksalad plant response rating [4, 21] | Ducksalad plant response rating [4, 22] | Ducksalad plant response rating [4, 23]
3: Soybean plant response rating [2, 5] | Soybean plant response rating [2, 14] | Soybean plant response rating [2, 19] | Soybean plant response rating [2, 20]
4: Cocklebur plant response rating [1, 14] | Cocklebur plant response rating [1, 20]
— 0 0 0 0: Cocklebur plant response rating [1, 18]
1: Velvetleaf plant response rating [3, 14] | Velvetleaf plant response rating [3, 20]

CC(C)N(C(=O)n1oc(=O)n(N2C(C)CCCC2C)c1=O)c1ccc(F)cc1 (stereo not drawn) [Compound 382]
1: Soybean plant response rating [2, 25]
5: Plant response rating, Soybean [2, 20]
3: Plant response rating, Soybean [2, 29]
0: Plant response rating, Cocklebur [1, 29] | Plant response rating, Cocklebur [1, 30] | Plant response rating, Cocklebur [1, 15] | Cocklebur plant response rating (0 to 10 scale) ([1]; Preemergence, Rate 125 g/ha) | Cocklebur plant response rating [1, 17] | Cocklebur plant response rating [1, 25] | Plant response rating, Cocklebur [1, 20] | Plant response rating, Soybean [2, 15] | Soybean plant response rating (0 to 10 scale) ([2]; Preemergence, Rate 125 g/ha) | Soybean plant response rating [2, 17] | Soybean plant response rating [2, 10] | Plant response rating, Velvetleaf [3, 29] | Plant response rating, Velvetleaf [3, 30] | Plant response rating, Velvetleaf [3, 15] | Velvetleaf plant response rating (0 to 10 scale) ([3]; Preemergence, Rate 125 g/ha) | Velvetleaf plant response rating [3, 17] | Velvetleaf plant response rating [3, 10] | Velvetleaf plant response rating [3, 25] | Plant response rating, Velvetleaf [3, 20] | Plant response rating, Ducksalad (0 to 10 scale, 0 is no effect, 10 is complete control) [4, 12] | Ducksalad plant response rating (0 to 10 scale, 0 is no effect, 10 is complete control) [4, 13] | Ducksalad plant response rating ([4]; Rate 250 g/ha, Pre-emergence, flood-test species, scale 0 to 10, 0 is no effect, 10 is complete control) | Ducksalad plant response rating ([4]; Rate 500 g/ha, Pre-emergence, flood test species, scale 0 to 10 (0 no effect, 10 complete control))
4: Plant response rating, Soybean [2, 30]
